≈ marks a conversion by molar mass, not a printed value.
What was measured:
[1] = Cytotoxicity against human THP1 cells at 50 ug/ml by MTT assay; type: cell-based; conditions: THP-1 cells, read-out: INH
[2] = system: Mycobacterium tuberculosis; assay: Antimycobacterial activity against Mycobacterium tuberculosis H37Rv by microplate alamar blue assay; type: functional

Structure (SMILES) | cytotoxicity at 50 ug/ml [1] [%] | MIC [2] [µM]
Clc1ccc(-c2csc(N/N=C/c3ccc(-n4cncn4)cc3)n2)cc1 | 28.4 | 8.2 (≈ 3.12 µg/mL)
Clc1ccc(-c2csc(N/N=C/c3ccc(-n4ccnc4)cc3)n2)c(Cl)c1 | 28.8 | 15.1 (≈ 6.26 µg/mL)
Clc1ccc(-c2csc(N/N=C/c3ccc(-n4cncn4)cc3)n2)c(Cl)c1 | 8.9 | 3.76 (≈ 1.56 µg/mL)
C(=N\Nc1nc(-c2ccccc2)cs1)/c1ccc(-n2ccnc2)cc1 | 21.8 | 72.5 (≈ 25 µg/mL)
O=[N+]([O-])c1ccc(-c2csc(N/N=C/c3ccc(-n4ccnc4)cc3)n2)cc1 | 16.4 | 1.03 (≈ 0.402 µg/mL)
C(=N\Nc1nc(-c2ccccc2)cs1)/c1ccc(-n2cncn2)cc1 | 28.4 | 72.2 (≈ 25 µg/mL)
NNC(=O)c1ccncc1 [ISONIAZID] | – | 0.36 (≈ 0.0494 µg/mL)
O=[N+]([O-])c1ccc(-c2csc(N/N=C/c3ccc(-n4cncn4)cc3)n2)cc1 | 12.9 | 3.99 (≈ 1.56 µg/mL)
Cc1ccc(-c2csc(N/N=C/c3ccc(-n4cncn4)cc3)n2)cc1 | 13.6 | 4.33 (≈ 1.56 µg/mL)
Fc1ccc(-c2csc(N/N=C/c3ccc(-n4cncn4)cc3)n2)cc1 | 35.9 | 4.29 (≈ 1.56 µg/mL)
Fc1ccc(-c2csc(N/N=C/c3ccc(-n4ccnc4)cc3)n2)cc1 | 18.7 | 4.3 (≈ 1.56 µg/mL)
CO[C@H]1/C=C/O[C@@]2(C)Oc3c(C)c(O)c4c(O)c(c(/C=N/N5CCN(C)CC5)c(O)c4c3C2=O)NC(=O)/C(C)=C\C=C\[C@H](C)[C@H](O)[C@@H](C)[C@@H](O)[C@@H](C)[C@H](OC(C)=O)[C@@H]1C [RIFAMPIN] | – | 0.12 (≈ 0.0988 µg/mL)
Brc1ccc(-c2csc(N/N=C/c3ccc(-n4cncn4)cc3)n2)cc1 | 32.6 | 29.5 (≈ 12.5 µg/mL)
Clc1ccc(-c2csc(N/N=C/c3ccc(-n4ccnc4)cc3)n2)cc1 | 32.1 | 8.22 (≈ 3.12 µg/mL)
COc1ccc(-c2csc(N/N=C/c3ccc(-n4cncn4)cc3)n2)cc1 | 23 | 16.6 (≈ 6.26 µg/mL)
COc1ccc(-c2csc(N/N=C/c3ccc(-n4ccnc4)cc3)n2)cc1 | 26.8 | 4.16 (≈ 1.56 µg/mL)
CC[C@@H](CO)NCCN[C@@H](CC)CO [ETHAMBUTOL] | – | 7.65 (≈ 1.56 µg/mL)
Cc1ccc(-c2csc(N/N=C/c3ccc(-n4ccnc4)cc3)n2)cc1 | 36 | 33 (≈ 11.9 µg/mL)
Brc1ccc(-c2csc(N/N=C/c3ccc(-n4ccnc4)cc3)n2)cc1 | 36.8 | 59.1 (≈ 25.1 µg/mL)

From ChEMBL document CHEMBL3232798, “Synthesis and antimycobacterial activities of some new thiazolylhydrazone derivatives” (Bioorg Med Chem Lett, 2014)
